We go through three sequences from publication PMC8944797, “Novel Antimicrobial Peptides Designed Using a Recurrent Neural Network Reduce Mortality in Experimental Sepsis” (Antibiotics, 2022).

Test [1] relates to carbapenem-resistant isolates of K. pneumoniae. Briefly: MIC, broth dilution method (EUCAST). Type of test: cell-based, Klebsiella pneumoniae. The note with it: median (first and third quartile) over n = 18 isolates; Mueller-Hinton broth, 37 °C, 18–20 h; range tested 0 to 32 μg/mL. As for the experimental part:
(§1) The strains of bacteria were isolated in 2021 from patients in the intensive care unit of the Stavropol State Regional Clinical Hospital. Identification and determination of antibiotic resistance of bacterial isolates were carried out using the disk diffusion method as part of a routine microbiological study in accordance with the European Committee on Antimicrobial Susceptibility Testing (EUCAST) protocols in the Department of Clinical Microbiology of the Center of Clinical Pharmacology and Pharmacotherapy.
The study of the antimicrobial activity of the synthesized peptides was performed by the standard broth dilution method according to the EUCAST guidelines. Briefly, pure bacterial cultures were cultured on a solid nutrient media (mannitol salt agar, BioMedia, Russia). From a fresh morning culture, we prepared a suspension in sterile saline corresponding to a McFarland turbidity standard of 0.5 (which is equivalent to 1–2 × 10^8 CFU/mL). The resulting suspension was dissolved in the BBL^TM Mueller-Hinton broth (Becton, Dickinson and Company, Franklin Lakes, NJ, USA) to obtain an inoculum with an approximate concentration of 5 × 10^5 CFU/mL. The inoculum (100 μL per well) was added to the wells of a sterile 96-well microtiter plate with a U-shaped bottom (Medpolymer, St. Petersburg, Russia). After that, serial two-fold dilutions of tested peptides (100 μL per well) were added to the wells. There were also sterility control wells (Mueller-Hinton broth only, without bacteria) and growth control wells (bacterial inoculum without peptides). Then, the plates were incubated in a thermostat at 37 °C. […] The MIC was taken as the minimum peptide concentration at which there was no visual growth in the corresponding well [26]. The peptides were dissolved in the Mueller–Hinton broth. The experiments with each peptide and bacterial isolate were performed in triplicate (in different plates). MIC values were calculated as median values of three independent replicates (calculations are presented in Supplementary Tables S1–S3). […]
For orientation: Broth dilution looks for growth in wells or tubes with falling amounts of substance.

Test [2] deals with carbapenem-resistant isolates of Klebsiella aerogenes. Briefly: MIC, broth dilution method (EUCAST). The test is classed as cell-based. The note with it: median (first and third quartile) over n = 12 isolates; Mueller-Hinton broth, 37 °C, 18–20 h; range tested 0 to 32 μg/mL. As for the experimental part: as §1
(§2) The study of the antimicrobial activity of the synthesized peptides was performed by the standard broth dilution method according to the EUCAST guidelines. Briefly, pure bacterial cultures were cultured on a solid nutrient media (mannitol salt agar, BioMedia, Russia). From a fresh morning culture, we prepared a suspension in sterile saline corresponding to a McFarland turbidity standard of 0.5 (which is equivalent to 1–2 × 10^8 CFU/mL). The resulting suspension was dissolved in the BBL^TM Mueller-Hinton broth (Becton, Dickinson and Company, Franklin Lakes, NJ, USA) to obtain an inoculum with an approximate concentration of 5 × 10^5 CFU/mL. The inoculum (100 μL per well) was added to the wells of a sterile 96-well microtiter plate with a U-shaped bottom (Medpolymer, St. Petersburg, Russia). After that, serial two-fold dilutions of tested peptides (100 μL per well) were added to the wells. There were also sterility control wells (Mueller-Hinton broth only, without bacteria) and growth control wells (bacterial inoculum without peptides). Then, the plates were incubated in a thermostat at 37 °C. […] The MIC was taken as the minimum peptide concentration at which there was no visual growth in the corresponding well [26]. The peptides were dissolved in the Mueller–Hinton broth. The experiments with each peptide and bacterial isolate were performed in triplicate (in different plates). MIC values were calculated as median values of three independent replicates (calculations are presented in Supplementary Tables S1–S3).
(§3) Calculations of MICs (median, first, and third quartile) were performed in Microsoft Excel (Supplementary Tables S1–S3). Survival analysis by the Kaplan–Meier method and log-rank (Mantel–Cox) test was performed using GraphPad Prism version 9.2.0 for macOS (GraphPad Software, San Diego, CA, USA, www.graphpad.com, accessed on 29 January 2022).

In test [3] the test system is carbapenem-resistant isolates of Pseudomonas aeruginosa. Kind of test: MIC, broth dilution method (EUCAST). The conditions noted are these: median (first and third quartile) over n = 17 isolates; Mueller-Hinton broth, 37 °C, 18–20 h; range tested 0 to 32 μg/mL. Type of test: cell-based. The procedure:
as §1, §2, §3

In test [4] the test system is K. pneumoniae-induced sepsis. Briefly: murine experimental model of K. pneumoniae-induced sepsis, survival. The conditions noted are these: for Survival proportions: single i.p. 100 μg dose, n=12. Type of test: in vivo, ICR (CD-1) mice. The procedure:
To assess the effectiveness of the studied peptides, a murine model of lethal generalized infection was used. The model of sepsis makes it possible to perform a simple and rapid screening assessment of the effectiveness of new antimicrobial agents in vivo [22, 28].
The ICR (CD-1) laboratory mice (females with an average weight of 30 g) were maintained in the vivarium of the Stavropol State Medical University. The mice (four animals per cage) were housed in temperature-controlled rooms at 24 °C and 50–60% humidity with a 12 h/12 h light/dark cycle and water and food availability ad libitum.
The animals were injected with bacterial suspensions of one of the carbapenem-resistant isolates of K. pneumoniae (isolate #7, Supplementary Table S2) prepared from a fresh morning culture in accordance with the McFarland turbidity standard of 15 (which corresponds to an approximate concentration of 4.5 × 10^9 CFU/mL). To determine the turbidity of the suspension, a DEN-1 densitometer (Biosan, Latvia) was used.
At t = 0 min, all animals were infected with K. pneumoniae: 150 μL of a 4.5 × 10^9 CFU/mL suspension (approx. 6.75 × 10^8 CFU per mice). 30 min after infection, the mice received a single injection of peptides at a dose of 100 μg. Mortality was assessed every 24 h for 5 days. Moribund animals were killed humanely to avoid unnecessary distress.
as §3

Turning to “KWKLFKKIWSSVKLKS [PEP-136, synthesized LSTM RNN-generated peptide]”, the MIC entry in test [1], in test [2] and in test [3] was “not active” in each case.

For “GILSSFKGVLKGAGKNLLGSLKDKLKN [PEP-174, synthesized LSTM RNN-generated peptide; probably printed as PEP-134 in b33]”, the MIC entry in test [1], in test [2] and in test [3] was “not active” in each case.

With “GIFSKLAGKKIKNLLISGLKNIGKEVGM [PEP-36, synthesized LSTM RNN-generated peptide]”, the MIC entry in test [1], in test [2] and in test [3] was “not active” each time. Besides, the Survival proportions in test [4] (day 1 after infecting) is recorded as 91,7%; in test [4] (day 2 after infecting) it was 75%; in test [4] (day 3 after infecting), 66,7%. Moreover, in test [4] (single intraperitoneal 100 μg dose 30 min after infection with 6.75 × 10^8 CFU K. pneumoniae, 5 days, n = 12 mice), the “survival proportion by the end of the observation period” value is given as 66.7%.
